Measurements from ChEMBL document CHEMBL1629688, “A collection of caged compounds for probing roles of local translation in neurobiology” (Bioorg Med Chem, 2010).
Calls of active or inactive are those of the source. No cut-off for these calls is given here.

Tested on: Ribosome
Assay: Inhibition of ribosome peptidyl transferase site in rabbit reticulocytes assessed as inhibition of translation using firefly luciferase DNA as template at 0.8 to 80 uM after 1 hr by luciferase assay
Assay type: subcellular
Conditions: Oryctolagus cuniculus

Structure (SMILES): CCN(CC)c1ccc2c(COC(=O)N3C[C@@H](O)[C@H](OC(C)=O)[C@@H]3Cc3ccc(OC)cc3)cc(=O)oc2c1
- inhibition: Active
